Assay results from patent US9113629B2, “4-amino-6-(4-substituted-phenyl)-picolinates and 6-amino-2-(4-substituted-phenyl)-pyrimidine-4-carboxylates and their use as herbicides” (DOW AGROSCIENCES LLC, priority 2013, dated 2015).

Tested on: Key Broadleaf Weed and Crop Species
Assay: Post-emergent Test II herbicidal activity (Table 5)
Assay type: in vivo
Settings: post-emergence, 336 h; ABUTH: velvetleaf (Abutilon theophrasti); 70 g ai/ha; post-emergent; 14 days after application; read-out: Visual Growth Reduction (%) 14 Days After Application ABUTH
In short: (§1)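 Post-emergence foliar spray, 187 L/ha, track sprayer at 43 cm above canopy. Carrier: acetone/water/IPA/DMSO/Atplus 411F/Triton X-155. Plants at 1st–2nd true leaf; subirrigated afterwards; % injury scored visually at 14 d.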

Which pest or weed control at 70 g/ha does the source give for `COC(=O)c1nc(-c2cc(F)c(I)cc2F)cc(N)c1Cl` [Compound 56] here?
The pest or weed control at 70 g/ha was 95 to 100%.

Same assay, conditions: post-emergence, 336 h; ABUTH: velvetleaf (Abutilon theophrasti); 140 g ai/ha; post-emergent; 14 days after application; read-out: Visual Growth Reduction (%) 14 Days After Application ABUTH

For `COC(=O)c1nc(-c2cc(F)c(I)cc2F)cc(N)c1Cl` [Compound 56], which pest or weed control at 140 g/ha is on record?
Its pest or weed control at 140 g/ha is 95 to 100%.

Same assay, conditions: post-emergence, 336 h; AMARE: redroot pigweed (Amaranthus retroflexus); 70 g ai/ha; post-emergent; 14 days after application; read-out: Visual Growth Reduction (%) 14 Days After Application AMARE

With `COC(=O)c1nc(-c2cc(F)c(I)cc2F)cc(N)c1Cl` [Compound 56] as the compound, how does the pest or weed control at 70 g/ha read?
Its pest or weed control at 70 g/ha is 95 to 100%.

Same assay, conditions: post-emergence, 336 h; AMARE: redroot pigweed (Amaranthus retroflexus); 140 g ai/ha; post-emergent; 14 days after application; read-out: Visual Growth Reduction (%) 14 Days After Application AMARE

With `COC(=O)c1nc(-c2cc(F)c(I)cc2F)cc(N)c1Cl` [Compound 56] as the compound, how does the pest or weed control at 140 g/ha read?
Its pest or weed control at 140 g/ha is 95 to 100%.

Same assay, conditions: post-emergence, 336 h; BRSNN: oilseed-rape, canola (Brassica napus); 70 g ai/ha; post-emergent; 14 days after application; read-out: Visual Growth Reduction (%) 14 Days After Application BRSNN

For `COC(=O)c1nc(-c2cc(F)c(I)cc2F)cc(N)c1Cl` [Compound 56], which pest or weed control at 70 g/ha is on record?
Its pest or weed control at 70 g/ha is 85 to 94%.

Same assay, conditions: post-emergence, 336 h; BRSNN: oilseed-rape, canola (Brassica napus); 140 g ai/ha; post-emergent; 14 days after application; read-out: Visual Growth Reduction (%) 14 Days After Application BRSNN

With `COC(=O)c1nc(-c2cc(F)c(I)cc2F)cc(N)c1Cl` [Compound 56] as the compound, how does the pest or weed control at 140 g/ha read?
Its pest or weed control at 140 g/ha is 85 to 94%.

Same assay, conditions: post-emergence, 336 h; CHEAL: lambsquarters (Chenopodium album); 70 g ai/ha; post-emergent; 14 days after application; read-out: Visual Growth Reduction (%) 14 Days After Application CHEAL

Which pest or weed control at 70 g/ha does the source give for `COC(=O)c1nc(-c2cc(F)c(I)cc2F)cc(N)c1Cl` [Compound 56] here?
The pest or weed control at 70 g/ha was 95 to 100%.

Same assay, conditions: post-emergence, 336 h; CHEAL: lambsquarters (Chenopodium album); 140 g ai/ha; post-emergent; 14 days after application; read-out: Visual Growth Reduction (%) 14 Days After Application CHEAL

With `COC(=O)c1nc(-c2cc(F)c(I)cc2F)cc(N)c1Cl` [Compound 56] as the compound, how does the pest or weed control at 140 g/ha read?
The pest or weed control at 140 g/ha was 95 to 100%.

Same assay, conditions: post-emergence, 336 h; EPHHL: wild poinsettia (Euphorbia heterophylla); 70 g ai/ha; post-emergent; 14 days after application; read-out: Visual Growth Reduction (%) 14 Days After Application EPHHL

Which pest or weed control at 70 g/ha does the source give for `COC(=O)c1nc(-c2cc(F)c(I)cc2F)cc(N)c1Cl` [Compound 56] here?
The pest or weed control at 70 g/ha was 95 to 100%.

Same assay, conditions: post-emergence, 336 h; EPHHL: wild poinsettia (Euphorbia heterophylla); 140 g ai/ha; post-emergent; 14 days after application; read-out: Visual Growth Reduction (%) 14 Days After Application EPHHL

Which pest or weed control at 140 g/ha does the source give for `COC(=O)c1nc(-c2cc(F)c(I)cc2F)cc(N)c1Cl` [Compound 56] here?
The pest or weed control at 140 g/ha was 95 to 100%.

Same assay, conditions: post-emergence, 336 h; HELAN: sunflower (Helianthus annuus); 70 g ai/ha; post-emergent; 14 days after application; read-out: Visual Growth Reduction (%) 14 Days After Application HELAN

Which pest or weed control at 70 g/ha does the source give for `COC(=O)c1nc(-c2cc(F)c(I)cc2F)cc(N)c1Cl` [Compound 56] here?
Its pest or weed control at 70 g/ha is 75 to 84%.

Same assay, conditions: post-emergence, 336 h; HELAN: sunflower (Helianthus annuus); 140 g ai/ha; post-emergent; 14 days after application; read-out: Visual Growth Reduction (%) 14 Days After Application HELAN

Which pest or weed control at 140 g/ha does the source give for `COC(=O)c1nc(-c2cc(F)c(I)cc2F)cc(N)c1Cl` [Compound 56] here?
The pest or weed control at 140 g/ha was 85 to 94%.

Same assay, conditions: post-emergence, 336 h; VIOTR: wild pansy (Viola tricolor); 70 g ai/ha; post-emergent; 14 days after application; read-out: Visual Growth Reduction (%) 14 Days After Application VIOTR

With `COC(=O)c1nc(-c2cc(F)c(I)cc2F)cc(N)c1Cl` [Compound 56] as the compound, how does the pest or weed control at 70 g/ha read?
The pest or weed control at 70 g/ha was 95 to 100%.

Same assay, conditions: post-emergence, 336 h; VIOTR: wild pansy (Viola tricolor); 140 g ai/ha; post-emergent; 14 days after application; read-out: Visual Growth Reduction (%) 14 Days After Application VIOTR

Which pest or weed control at 140 g/ha does the source give for `COC(=O)c1nc(-c2cc(F)c(I)cc2F)cc(N)c1Cl` [Compound 56] here?
The pest or weed control at 140 g/ha was 95 to 100%.

Tested on: Key Grass and Sedge Weeds as well as Grass Crops
Assay: Post-emergent Test II herbicidal activity (Table 6)
Assay type: in vivo
Settings: Triticum aestivum, post-emergence, 336 h, TRZSS (wheat), application rate 70 g ai/ha, read-out: Visual Growth Reduction (%) 14 Days After Application, TRZSS
In short: as §1

Which pest or weed control at 70 g/ha does the source give for `COC(=O)c1nc(-c2cc(F)c(I)cc2F)cc(N)c1Cl` [Compound 56] here?
Its pest or weed control at 70 g/ha is 60 to 74%.

Same assay, conditions: Triticum aestivum, post-emergence, 336 h, TRZSS (wheat), application rate 140 g ai/ha, read-out: Visual Growth Reduction (%) 14 Days After Application, TRZSS

With `COC(=O)c1nc(-c2cc(F)c(I)cc2F)cc(N)c1Cl` [Compound 56] as the compound, how does the pest or weed control at 140 g/ha read?
The pest or weed control at 140 g/ha was 60 to 74%.

Same assay, conditions: post-emergence, 336 h, CYPES: yellow nutsedge (Cyperus esculentus), application rate 70 g ai/ha, read-out: Visual Growth Reduction (%) 14 Days After Application, CYPES

For `COC(=O)c1nc(-c2cc(F)c(I)cc2F)cc(N)c1Cl` [Compound 56], which pest or weed control at 70 g/ha is on record?
The pest or weed control at 70 g/ha was 95 to 100%.

Same assay, conditions: post-emergence, 336 h, CYPES: yellow nutsedge (Cyperus esculentus), application rate 140 g ai/ha, read-out: Visual Growth Reduction (%) 14 Days After Application, CYPES

With `COC(=O)c1nc(-c2cc(F)c(I)cc2F)cc(N)c1Cl` [Compound 56] as the compound, how does the pest or weed control at 140 g/ha read?
The pest or weed control at 140 g/ha was 95 to 100%.

Same assay, conditions: post-emergence, 336 h, DIGSA: crabgrass (Digitaria sanguinalis), application rate 70 g ai/ha, read-out: Visual Growth Reduction (%) 14 Days After Application, DIGSA

With `COC(=O)c1nc(-c2cc(F)c(I)cc2F)cc(N)c1Cl` [Compound 56] as the compound, how does the pest or weed control at 70 g/ha read?
Its pest or weed control at 70 g/ha is 75 to 84%.

Same assay, conditions: post-emergence, 336 h, DIGSA: crabgrass (Digitaria sanguinalis), application rate 140 g ai/ha, read-out: Visual Growth Reduction (%) 14 Days After Application, DIGSA

Which pest or weed control at 140 g/ha does the source give for `COC(=O)c1nc(-c2cc(F)c(I)cc2F)cc(N)c1Cl` [Compound 56] here?
Its pest or weed control at 140 g/ha is 85 to 94%.

Same assay, conditions: post-emergence, 336 h, ECHCG: barnyardgrass (Echinochloa crus-galli), application rate 70 g ai/ha, read-out: Visual Growth Reduction (%) 14 Days After Application, ECHCG

Which pest or weed control at 70 g/ha does the source give for `COC(=O)c1nc(-c2cc(F)c(I)cc2F)cc(N)c1Cl` [Compound 56] here?
Its pest or weed control at 70 g/ha is 95 to 100%.

Same assay, conditions: post-emergence, 336 h, ECHCG: barnyardgrass (Echinochloa crus-galli), application rate 140 g ai/ha, read-out: Visual Growth Reduction (%) 14 Days After Application, ECHCG

Which pest or weed control at 140 g/ha does the source give for `COC(=O)c1nc(-c2cc(F)c(I)cc2F)cc(N)c1Cl` [Compound 56] here?
Its pest or weed control at 140 g/ha is 95 to 100%.

Same assay, conditions: post-emergence, 336 h, ORYSA: rice (Oryza sativa), application rate 70 g ai/ha, read-out: Visual Growth Reduction (%) 14 Days After Application, ORYSA

Which pest or weed control at 70 g/ha does the source give for `COC(=O)c1nc(-c2cc(F)c(I)cc2F)cc(N)c1Cl` [Compound 56] here?
The pest or weed control at 70 g/ha was 0 to 29%.

Same assay, conditions: post-emergence, 336 h, ORYSA: rice (Oryza sativa), application rate 140 g ai/ha, read-out: Visual Growth Reduction (%) 14 Days After Application, ORYSA

With `COC(=O)c1nc(-c2cc(F)c(I)cc2F)cc(N)c1Cl` [Compound 56] as the compound, how does the pest or weed control at 140 g/ha read?
Its pest or weed control at 140 g/ha is 0 to 29%.

Same assay, conditions: post-emergence, 336 h, SETFA: giant foxtail (Setaria faberi), application rate 70 g ai/ha, read-out: Visual Growth Reduction (%) 14 Days After Application, SETFA

Which pest or weed control at 70 g/ha does the source give for `COC(=O)c1nc(-c2cc(F)c(I)cc2F)cc(N)c1Cl` [Compound 56] here?
The pest or weed control at 70 g/ha was 95 to 100%.

Same assay, conditions: post-emergence, 336 h, SETFA: giant foxtail (Setaria faberi), application rate 140 g ai/ha, read-out: Visual Growth Reduction (%) 14 Days After Application, SETFA

Which pest or weed control at 140 g/ha does the source give for `COC(=O)c1nc(-c2cc(F)c(I)cc2F)cc(N)c1Cl` [Compound 56] here?
Its pest or weed control at 140 g/ha is 95 to 100%.

Same assay, conditions: post-emergence, 336 h, SORVU: grain sorghum (Sorghum vulgare), application rate 70 g ai/ha, read-out: Visual Growth Reduction (%) 14 Days After Application, SORVU

Which pest or weed control at 70 g/ha does the source give for `COC(=O)c1nc(-c2cc(F)c(I)cc2F)cc(N)c1Cl` [Compound 56] here?
Its pest or weed control at 70 g/ha is 75 to 84%.

Same assay, conditions: post-emergence, 336 h, SORVU: grain sorghum (Sorghum vulgare), application rate 140 g ai/ha, read-out: Visual Growth Reduction (%) 14 Days After Application, SORVU

Which pest or weed control at 140 g/ha does the source give for `COC(=O)c1nc(-c2cc(F)c(I)cc2F)cc(N)c1Cl` [Compound 56] here?
Its pest or weed control at 140 g/ha is 85 to 94%.

Same assay, conditions: post-emergence, 336 h, ZEAMX: maize, corn (Zea mays), application rate 70 g ai/ha, read-out: Visual Growth Reduction (%) 14 Days After Application, ZEAMX

Which pest or weed control at 70 g/ha does the source give for `COC(=O)c1nc(-c2cc(F)c(I)cc2F)cc(N)c1Cl` [Compound 56] here?
The pest or weed control at 70 g/ha was 85 to 94%.

Same assay, conditions: post-emergence, 336 h, ZEAMX: maize, corn (Zea mays), application rate 140 g ai/ha, read-out: Visual Growth Reduction (%) 14 Days After Application, ZEAMX

For `COC(=O)c1nc(-c2cc(F)c(I)cc2F)cc(N)c1Cl` [Compound 56], which pest or weed control at 140 g/ha is on record?
The pest or weed control at 140 g/ha was 85 to 94%.

Tested on: not given
Assay: not given
Settings: not given

Which melting point does the source give for `COC(=O)c1nc(-c2cc(F)c(I)cc2F)cc(N)c1Cl` [Compound 56] here?
Its melting point is 142 to 144 °C.
